What was measured:
[1] = biological target: recombinant human Cathepsin K (Homo sapiens (Human), UniProt P43235); assay: Inhibition of human Cathepsin K; assay type: biochemical; details: substrate Z-Gly-Pro-Arg-AMC
From the text: Inhibition of Human Cathepsin K
Materials: Microtiterplates (Optiplate-384 F were purchased from PerkinElmer (Prod. No. 6007270). The substrate Z-Gly-Pro-Arg-AMC was from Biomol (Prod.-No. P-142). L-Cysteine (Prod. No. 168149) was from Sigma. Sodium acetate was from Merck (Prod.-No. 6268.0250), EDTA was from Fluka (Prod.-No. 03680). The inhibitor E-64 was purchased from Sigma (Prod.-No. E3132). The recombinant human Cathepsin K proenzyme was purchased from Biomol (Prod. No. SE-367). All other materials were of highest grade commercially available.
The following buffers were used: Activation buffer: 32.5 mM sodium acetate, adjusted to pH 3.5 with HCl; Assay buffer: 150 mM sodium acetate, 4 mM EDTA, 20 mM L-Cysteine, adjusted to pH 5.5 with HCl,
To activate the proenzyme, 5 μl procathepsin K were mixed with 1 ul activation buffer, and incubated at room temperature for 30 min.
5 μL test compound (final concentration 0.1 nM to 100 μM) in aqua bidest (containing 4% DMSO, final DMSO concentration 1%) were mixed with 10 uL of Cathepsin K in assay buffer (final concentration 2 ng/μL) and incubated for 10 min. […] The plates were then incubated at room temperature for 60 min. Then, the reaction was stopped by adding 10 μL of E64 in assay buffer (final concentration 1 μM). The fluorescence in the wells was determined using a Molecular Devices SpectraMax M5 Fluorescence Reader (Ex 360 nm, Em 460 nm).
Each assay microtiter plate contains wells with vehicle controls (1% DMSO in bidest) as reference for non-inhibited enzyme activity (100% Ctl; high values) and wells with inhibitor (E64 in bidest+1% DMSO, final concentration […]) as controls for background fluorescence (0% Ctl; low values). The analysis of the data was performed by calculating the percentage of fluorescence in the presence of test compound in comparison to the fluorescence of the vehicle control after subtracting the background fluorescence: (RFU(sample)−RFU(background))*100/(RFU(control)−RFU(background))
Data from these calculations were used to generate IC50 values for inhibition of Cathepsin K, respectively.

[2] = biological target: recombinant human DPPI (Cathepsin C) (Homo sapiens (Human), UniProt P53634); assay: Inhibition of human DPPI (Cathepsin C); assay type: biochemical; details: substrate Gly-Arg-AMC
recombinant human DPPI (Cathepsin C), sequence (P53634 231-394): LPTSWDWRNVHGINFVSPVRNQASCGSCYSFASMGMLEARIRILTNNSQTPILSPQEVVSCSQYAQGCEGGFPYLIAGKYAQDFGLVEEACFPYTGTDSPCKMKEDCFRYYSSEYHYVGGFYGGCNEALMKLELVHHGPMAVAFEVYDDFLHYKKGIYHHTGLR
recombinant human DPPI (Cathepsin C), sequence (P53634 395-463): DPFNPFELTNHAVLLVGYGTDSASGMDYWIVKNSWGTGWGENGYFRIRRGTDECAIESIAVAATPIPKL
recombinant human DPPI (Cathepsin C), sequence (P53634 25-134): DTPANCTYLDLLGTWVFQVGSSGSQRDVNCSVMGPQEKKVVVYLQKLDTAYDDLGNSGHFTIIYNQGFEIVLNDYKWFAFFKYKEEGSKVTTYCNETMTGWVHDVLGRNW
Method: Inhibition of Human DPPI (Cathepsin C)
Bovine serum albumin (BSA; Prod. No. A3059) and Dithiothreitol (DTT; Prod. No D0632) were from Sigma. […] The DPP1 inhibitor Gly-Phe-DMK was purchased from MP Biomedicals (Prod.-No. 03DK00625). The recombinant human DPPI was purchased from Prozymex. All other materials were of highest grade commercially available.
The following buffers were used: MES buffer: 25 mM MES, 50 mM NaCl, 5 mM DTT, adjusted to pH 6.0, containing 0.1% BSA; TAGZyme Buffer: 20 mM NaH2PO4, 150 mM NaCl adjusted to pH 6.0 with HCl
Then, 5 μL of substrate in MES buffer (final concentration 50 μM) were added. The microtiter plates were then incubated at room temperature for 30 min. Then, the reaction was stopped by adding 10 μL of Gly-Phe-DMK in MES-buffer (final concentration 1 μM).
The analysis of the data was performed by calculating the percentage of fluorescence in the presence of test compound in comparison to the fluorescence of the vehicle control after subtracting the background fluorescence using the following formula: (RFU(sample)−RFU(background))*100/(RFU(control)−RFU(background))
Data from these calculations were used to generate IC50 values for inhibition of DPPI, respectively.

recombinant human Cathepsin K, sequence (P43235 115-329): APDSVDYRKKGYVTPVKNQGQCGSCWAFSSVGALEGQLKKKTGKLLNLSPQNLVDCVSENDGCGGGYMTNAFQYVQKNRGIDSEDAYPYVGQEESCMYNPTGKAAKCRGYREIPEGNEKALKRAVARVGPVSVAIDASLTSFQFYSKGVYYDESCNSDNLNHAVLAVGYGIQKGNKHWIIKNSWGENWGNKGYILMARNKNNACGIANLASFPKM

Compound | IC50 [1] | IC50 [2]
N#C[C@H](Cc1ccc(-c2ccc3c(c2)C(=O)OC3)cc1F)NC(=O)[C@H]1N[C@@H]2CC[C@H]1C2 [Example 34] | 2500 nM | 4.6 nM
N#C[C@H](Cc1ccc(-c2cccs2)cc1F)NC(=O)[C@H]1N[C@@H]2CC[C@H]1C2 [Example 36] | 3000 nM | 4.7 nM
N#C[C@H](Cc1ccc(-c2cccc(S(N)(=O)=O)c2)cc1F)NC(=O)[C@H]1N[C@@H]2CC[C@H]1C2 [Example 37] | 5100 nM | 4.7 nM
CC(=O)NCCn1cc(-c2ccc(C[C@@H](C#N)NC(=O)[C@H]3N[C@@H]4CC[C@H]3C4)c(F)c2)cn1 [Example 38] | 2900 nM | 4.8 nM
N#C[C@@H](Cc1ccc(-c2ccc3ncsc3c2)cc1F)NC(=O)[C@H]1N[C@@H]2CC[C@H]1C2 [Example 45] | 4400 nM | 6.3 nM
CCc1ncc(-c2ccc(C[C@@H](C#N)NC(=O)[C@H]3N[C@@H]4CC[C@H]3C4)c(F)c2)s1 [Example 46] | 4000 nM | 6.9 nM
CC(C)CC(=O)n1cc(-c2ccc(C[C@@H](C#N)NC(=O)[C@H]3N[C@@H]4CC[C@H]3C4)c(F)c2)cn1 [Example 48] | 3300 nM | 7.2 nM
CNS(=O)(=O)c1ccc(-c2ccc(CC(C#N)NC(=O)[C@H]3N[C@@H]4CC[C@H]3C4)c(F)c2)cc1 (stereo partly shown) [Example 51] | 4900 nM | 7.5 nM
N#CC(Cc1ccc(-c2ccc(S(N)(=O)=O)cc2)cc1F)NC(=O)[C@H]1N[C@@H]2CC[C@H]1C2 (stereo partly shown) [Example 56] | 4000 nM | 8.3 nM
N#C[C@H](Cc1ccc(-c2cnc(N3CCOCC3)s2)cc1F)NC(=O)[C@H]1N[C@@H]2CC[C@H]1C2 [Example 59] | 2500 nM | 8.5 nM
Cn1nc2ccccc2c1-c1ccc(C[C@@H](C#N)NC(=O)[C@H]2N[C@@H]3CC[C@H]2C3)c(F)c1 [Example 60] | 12300 nM | 8.7 nM
CN1C(=O)Cc2ccc(-c3cc(F)c(CC(C#N)NC(=O)[C@H]4N[C@@H]5CC[C@H]4C5)c(F)c3)cc21 (stereo partly shown) [Example 61] | 10900 nM | 8.7 nM
CC(C)Cn1cc(-c2ccc(C[C@@H](C#N)NC(=O)[C@H]3N[C@@H]4CC[C@H]3C4)c(F)c2)cn1 [Example 64] | 4200 nM | 9.3 nM
COc1ncc(-c2cn(-c3ccc(C[C@@H](C#N)NC(=O)[C@H]4N[C@@H]5CC[C@H]4C5)c(F)c3)nn2)cn1 [Example 66] | 4800 nM | 9.4 nM
N#C[C@H](Cc1ccc(-c2cn[nH]c2)cc1F)NC(=O)[C@H]1N[C@@H]2CC[C@H]1C2 [Example 69] | 2400 nM | 9.9 nM
Cn1ncc2ccc(-c3ccc(C[C@@H](C#N)NC(=O)[C@H]4N[C@H]5C[C@@H]4[C@@H]4C[C@@H]45)c(F)c3)cc21 [Example 70] | 12000 nM | 10.2 nM
CC(=O)c1ccc(-c2ccc(CC(C#N)NC(=O)[C@H]3N[C@@H]4CC[C@H]3C4)c(F)c2)s1 (stereo partly shown) [Example 72] | 7300 nM | 10.8 nM
N#C[C@H](Cc1ccc(-c2ccco2)cc1F)NC(=O)[C@H]1N[C@@H]2CC[C@H]1C2 [Example 73] | 3100 nM | 11.2 nM
N#C[C@H](Cc1ccc(-c2cnn(C(=O)C3CCOCC3)c2)cc1F)NC(=O)[C@H]1N[C@@H]2CC[C@H]1C2 [Example 74] | 2500 nM | 11.4 nM
N#C[C@H](Cc1ccc(-c2ccccc2)cc1F)NC(=O)[C@H]1N[C@@H]2CC[C@H]1C2 [Example 75] | 5300 nM | 11.4 nM
N#CC(Cc1ccc(-c2ccc3c(c2)CC(=O)N3)cc1F)NC(=O)[C@H]1N[C@@H]2CC[C@H]1C2 (stereo partly shown) [Example 79] | 3500 nM | 12 nM
Cc1nc(C)c(-c2ccc(C[C@@H](C#N)NC(=O)[C@H]3N[C@@H]4CC[C@H]3C4)c(F)c2)s1 [Example 80] | 4100 nM | 12.4 nM
CN1C(=O)Cc2ccc(-c3ccc(C[C@@H](C#N)NC(=O)[C@H]4N[C@@H]5CC[C@H]4C5)c(Cl)c3)cc21 [Example 81] | 4500 nM | 13.1 nM
